{
  "source": "patent US5910502A",
  "about": "“Use of levobupivacaine in paediatric surgery” (priority 1997, dated 1999)",
  "key": {"[1]": {"tested_on": "tk locus (5-trifluorothymidine resistance) in mouse lymphoma cells", "assay": "Mutation at the tk locus (5-trifluorothymidine resistance) in mouse lymphoma cells, fluctuation protocol, with and without S-9", "procedure": "(§1) More specifically, levobupivacaine HCl was assayed for its ability to induce mutation at the tk locus (5-trifluorothymidine resistance) in mouse lymphoma cells using a fluctuation protocol. The study consisted of a cytotoxicity range-finder followed by two independent experiments, each conducted in the absence and presence of metabolic activation by an Aroclor 1254-induced rat liver post-mitochondrial fraction (S-9). For reference, bupivacaine HCl was tested concurrently in the cytotoxicity range-finder.\nFor reference, three doses of bupivacaine HCl were tested in the absence of S-9 (250, 500 and 750 μg/ml), and two doses in the presence of S-9 (250, 500 μg/ml). The lowest five doses of levobupivacaine HCl and all reference doses of bupivacaine HCl were selected to determined viability and 5-trifluorothymidine resistance, 2 days after treatment.\nIn the second experiment, the dose range was modified slightly for both levobupivacaine HCl and bupivacaine HCl.\nNegative (solvent) and positive control treatments were included in each mutation experiment in the absence and presence of S-9."}, "[2]": {"assay": "Cytotoxicity range-finder (relative survival), with and without S-9", "type": "cell-based, mouse", "conditions": "mouse", "procedure": "as §1\n(§2) A wide range of concentrations were selected for the cytotoxicity range-finder experiments, separated by two-fold intervals and ranging from 31.25 to 1000 μg/ml for levobupivacaine HCl and from 62.5 to 2000 μg/ml for bupivacaine HCl (limited by solubility in both cases)."}, "mouse lymphoma cells": {"tested_on": "mouse lymphoma cells", "assay": "Cytotoxicity range-finder (relative survival), with and without S-9", "type": "cell-based", "procedure": "as §1, §2"}, "[3]": {"tested_on": "heart; central nervous system (CNS)", "conditions": "cited from earlier work"}, "heart": {"tested_on": "heart", "conditions": "in vitro; Vanhoutte et al 1991, Denson et al 1992; cited from earlier work"}, "[4]": {"tested_on": "children having outpatient herniorrhaphy", "assay": "Double-blind randomized placebo-controlled clinical study: IlIH nerve block in children having outpatient herniorrhaphy", "type": "in vivo, human (children ages 6 mo to 12 y)", "experimental": "In a clinical study, the suitability of levobupivacaine in paediatric surgery was evaluated. This was a double-blind randomized, placebo-controlled study, to determine the safety and effectiveness of levobupivacaine for field block in children having outpatient herniorrhaphy. More specifically, otherwise healthy children ages 6 mo to 12 y presenting for outpatient herniorrhaphy were randomized to receive either ilioinguinal/iliohytpogastric (IlIH) nerve block(s) with 0.25 ml/kg 0.5% levobupivacaine per side operated, or no block, at the completion of surgery."}, "[5]": {"tested_on": "patients requiring hernia repair", "assay": "Further study in patients requiring hernia repair: rescue analgesia", "type": "in vivo, human", "procedure": "In a further study, using levobupivacaine in patients requiring hernia repair, 45% of patients in the 0.5% levobupivacaine group compared with 73.3% of patients in the no block required at least one dose of rescue analgesia (p=0.167). The majority of the children who required rescue (91.4%) required two or fewer doses of rescue analgesia. […] The median patient in the 0.5% levobupivacaine group first requested rescue medication after at least 118 minutes, compared with 31 minutes in the no block group (p=0.041)."}, "[6]": {"conditions": "0.25 ml/kg 0.5% per side operated, vs no block"}},
  "note": "Counter-ions that a name gives are not always drawn.",
  "data": [
    {"smiles": "c1ccc2c(c1)cc1ccc3cccc4ccc2c1c34", "note": "[benzo[a]pyrene]", "values": [
      {"measurement": "mutation, positive control", "setting": "[1]; with S-9", "value": "clear increases in mutation"}
    ]},
    {"smiles": "CCCCN1CCCC[C@H]1C(=O)Nc1c(C)cccc1C", "note": "[levobupivacaine HCl]", "values": [
      {"measurement": "viability", "setting": "[2]; absence of S-9, 1000 μg/ml", "value": 150, "unit": "%"},
      {"measurement": "viability", "setting": "[2]; presence of S-9, 1000 μg/ml", "value": 9.1, "unit": "%"},
      {"measurement": "cell survival (in words)", "setting": "mouse lymphoma cells; 31.25 to 1000 μg/ml, absence and presence of S-9", "value": "Cells survived all doses"},
      {"measurement": "mutagenicity, overall conclusion", "setting": "[1]", "value": "not mutagenic"}
    ]},
    {"smiles": "O=[N+]([O-])c1cc[n+]([O-])c2ccccc12", "note": "[4-nitroquinoline 1-oxide]", "values": [
      {"measurement": "mutation, positive control", "setting": "[1]; without S-9", "value": "clear increases in mutation"}
    ]},
    {"smiles": "CCCCN1CCCCC1C(=O)Nc1c(C)cccc1C", "note": "(stereo not drawn) [bupivacaine HCl]", "values": [
      {"measurement": "viability", "setting": "[2]; absence of S-9, 500 μg/ml", "value": 100, "unit": "%"},
      {"measurement": "viability", "setting": "[2]; presence of S-9, 500 μg/ml", "value": 12.4, "unit": "%"},
      {"measurement": "cytotoxicity (in words)", "setting": "mouse lymphoma cells; bupivacaine HCl (reference), top two doses, 1000 and 2000 μg/ml", "value": "completely toxic"}
    ]},
    {"smiles": "CCCCN1CCCCC1C(=O)Nc1c(C)cccc1C", "note": "(racemic) [bupivacaine]", "values": [
      {"measurement": "CNS side-effects (in words)", "setting": "[3]; at higher doses", "value": "undesirable central nervous system (CNS) side-effects"},
      {"measurement": "cardiotoxicity (in words)", "setting": "[3]; background", "value": "cardiotoxic, having depressant electrophysiological and mechanical effects on the heart"},
      {"measurement": "death in patients (in words)", "setting": "[3]; including women in childbirth and Bier's block", "value": "produced death in a number of patients"},
      {"measurement": "dosage limitation by cytotoxicity, summary", "setting": "[1]", "value": "limited by cytotoxicity"},
      {"measurement": "genotoxicity, summary", "setting": "[1]", "value": "positive for genotoxicity"}
    ]},
    {"smiles": "CCCCN1CCCC[C@H]1C(=O)Nc1c(C)cccc1C", "note": "[levobupivacaine, (S)-1-butyl-N-(2,6-dimethylphenyl)-2-piperidinecarboxamide]", "values": [
      {"measurement": "cardiotoxicity relative to dextrobupivacaine and racemic bupivacaine", "setting": "heart", "value": "less cardiotoxic than dextrobupivacaine and racemic bupivacaine"},
      {"measurement": "genotoxicity, summary", "setting": "[1]", "value": "completely negative"},
      {"measurement": "safety and effectiveness for IlIH block, conclusion", "setting": "[4]; 0.25 ml/kg 0.5% levobupivacaine per side operated", "value": "safe and effective"},
      {"measurement": "adverse events specifically attributable to levobupivacaine", "setting": "[4]; 0.25 ml/kg 0.5% per side operated", "value": "absence of any adverse events"},
      {"measurement": "interval to rescue analgesia", "setting": "[4]; [6]", "value": "longer interval to rescue analgesia"},
      {"measurement": "rescue analgesic doses", "setting": "[4]; [6]", "value": "fewer rescue analgesic doses"},
      {"measurement": "CHEOPS", "setting": "[4]; at 15, 20, 30 and 60 min, 0.25 ml/kg 0.5% per side operated, vs no block", "value": "lower CHEOPS"},
      {"measurement": "time to first request for rescue medication (in words)", "setting": "[5]; 0.5% levobupivacaine group vs no block group", "value": "significantly longer"},
      {"measurement": "patients requiring at least one dose of rescue analgesia", "setting": "[5]; 0.5% levobupivacaine group, no block 73.3%, p=0.167", "value": 45, "unit": "%"},
      {"measurement": "median time to first request for rescue medication", "setting": "[5]; 0.5% levobupivacaine group, no block 31 minutes, p=0.041", "value": "at least 118 minutes"}
    ]}
  ]
}
